According to US8435588B2, “High-potency sweetener composition with an anti-inflammatory agent and compositions sweetened therewith” (The Coca-Cola Company, priority 2005, dated 2013):

Key:
[1] = Rate of dissolution of rebaudioside A polymorph and amorphous forms in H2O; format: physicochemical
[2] = format: physicochemical
Description: A solution of rebaudioside A (>97% pure by HPLC ) was prepared in double distilled water (12.5 gm in 50 mL, 25% concentration) by stirring the mixture at 40° C. for 5 minutes. An amorphous form of rebaudioside A was formed by immediately using the clear solution for spray drying with the Lab-Plant spray drier SD-04 instrument (Lab-Plant Ltd., West Yorkshire, U.K.). The solution was fed through the feed pump into the nozzle atomizer which atomized it into a spray of droplets with the help of a constant flow of nitrogen/air.

[3] = Sensory evaluation of sweetness linger by expert panel; format: in vivo; set-up: key: 0: no sweetness linger; 1: very slight sweetness linger; 2: slight sweetness linger; 3: moderate sweetness linger; 4: moderately high sweetness linger; 5: high sweetness linger; conditions: for Sweetness Linger rating (defined for controls of the protocol): sucrose, 500 ppm control sample, values defined as scale anchors; for sweetness linger: scale 0-5
Description: Sensory evaluation of the samples prepared in Example Set G was carried out under the following protocol, similar to that described hereinabove. In this test protocol, none of the samples were swallowed. All samples were expectorated and the mouth was rinsed with water after the tasting. Immediately upon sensing maximal sweetness, the sample was expectorated, the mouth was rinsed with water and the rate of sweetness decay (“Sweetness Linger”) was measured, where attention was focused on the sweetness 3-4 min after the water rinse. After sample tasting was complete, a salty oyster cracker was chewed followed by a water rinse, and at least 5 minutes followed before tasting the next sample. The sweetness linger was rated by a panel of experts in the sensory evaluation of foods and beverages using the following scale: 0=no sweetness linger, 1=very slight sweetness linger, 2=slight sweetness linger, 3=moderate sweetness linger, 4=moderately high sweetness linger, 5=high sweetness linger.
The “Sweetness Linger” rating for sucrose observed by this protocol is defined as 0. The Sweetness Linger of a 500 ppm of EBA control sample is defined as 5. Experimental samples were tasted by the same protocol, always allowing sufficient time between samples to ensure re-equilibration of the sensory system. Re-tasting of control samples during the course of the experiment was allowed and encouraged.
The comparison taste test was performed between two controls and addition of sweet taste improving additive on the onset and/or sweetness linger.
Sweet taste improving compositions were combined with a EBA solution to determine their effect on sweetness linger. Screening of the initial sample, or further dilutions, allowed identification of concentrations which were just above-threshold, herein defined as “near-threshold concentrations.” The near-threshold additive concentrations, a 6- to 100-fold higher additive concentration (depending on the off-taste intensity), and a mid-level additive concentration (halfway between the near-threshold and higher additive concentration) were evaluated to determine the effect on sweetness linger of a REBA solution.
Formulations of a 500 ppm EBA in a phosphoric acid solution (75%) at a pH of 2.5 with phosphoric acid or a pH of 3.1 with citric acid and potassium citrate were prepared prior to the addition of the additives at the three levels of concentration.
Sensory evaluation using the protocol described in Example Set G then was used to evaluate the sweetness linger of the REBA solutions.

SMILES	Rate of dissolution in H2O at 25° C. [1]	Sweetness Linger rating (defined for controls of the protocol) [3]	also measured
C=C1C[C@@]23CC[C@H]4[C@@](C)(CCC[C@@]4(C)C(=O)O[C@@H]4O[C@H](CO)[C@@H](O)[C@H](O)[C@H]4O)[C@@H]2CC[C@]1(O[C@@H]1O[C@H](CO)[C@@H](O)[C@H](O[C@@H]2O[C@H](CO)[C@@H](O)[C@H](O)[C@H]2O)[C@H]1O[C@@H]1O[C@H](CO)[C@@H](O)[C@H](O)[C@H]1O)C3 [Form 1, rebaudioside A]	Very low (<0.2%/ %/60 minutes	–	–
C=C1C[C@@]23CC[C@H]4[C@@](C)(CCC[C@@]4(C)C(=O)O[C@@H]4O[C@H](CO)[C@@H](O)[C@H](O)[C@H]4O)[C@@H]2CC[C@]1(O[C@@H]1O[C@H](CO)[C@@H](O)[C@H](O[C@@H]2O[C@H](CO)[C@@H](O)[C@H](O)[C@H]2O)[C@H]1O[C@@H]1O[C@H](CO)[C@@H](O)[C@H](O)[C@H]1O)C3 [Form 3, rebaudioside A]	High (>30%/5 %/5 minutes	–	–
C=C1C[C@@]23CC[C@H]4[C@@](C)(CCC[C@@]4(C)C(=O)O[C@@H]4O[C@H](CO)[C@@H](O)[C@H](O)[C@H]4O)[C@@H]2CC[C@]1(O[C@@H]1O[C@H](CO)[C@@H](O)[C@H](O[C@@H]2O[C@H](CO)[C@@H](O)[C@H](O)[C@H]2O)[C@H]1O[C@@H]1O[C@H](CO)[C@@H](O)[C@H](O)[C@H]1O)C3 [Form 2, rebaudioside A]	Intermediate (<30%/ %/5 minutes	–	–
C=C1C[C@@]23CC[C@H]4[C@@](C)(CCC[C@@]4(C)C(=O)O[C@@H]4O[C@H](CO)[C@@H](O)[C@H](O)[C@H]4O)[C@@H]2CC[C@]1(O[C@@H]1O[C@H](CO)[C@@H](O)[C@H](O[C@@H]2O[C@H](CO)[C@@H](O)[C@H](O)[C@H]2O)[C@H]1O[C@@H]1O[C@H](CO)[C@@H](O)[C@H](O)[C@H]1O)C3 [Form 4, rebaudioside A]	High (>35.0%/ %/5 minutes	–	solubility in water at room temperature [2]: > 35.0%
OC[C@H]1O[C@@](CO)(O[C@H]2O[C@H](CO)[C@@H](O)[C@H](O)[C@H]2O)[C@@H](O)[C@@H]1O [sugar, sucrose, reference compound]	–	0	–
C=C1C[C@@]23CC[C@H]4[C@@](C)(CCC[C@@]4(C)C(=O)O[C@@H]4O[C@H](CO)[C@@H](O)[C@H](O)[C@H]4O)[C@@H]2CC[C@]1(O[C@@H]1O[C@H](CO)[C@@H](O)[C@H](O[C@@H]2O[C@H](CO)[C@@H](O)[C@H](O)[C@H]2O)[C@H]1O[C@@H]1O[C@H](CO)[C@@H](O)[C@H](O)[C@H]1O)C3 [REBA, rebaudioside A]	–	5	sweetness linger ([3]; Example Set G: 400 ppm REBA in citric acid/potassium citrate composition equivalent to diet lemon-lime beverage, sugar control 8 g in 100 ml citrate buffer): 5; sweetness linger ([3]; Example Set H: 500 ppm REBA (H41: 360 ppm) in carbon-treated water, phosphoric acid (75%) to pH 2.4-2.5, sugar control 10 g in 100 ml): 5
